Tested on: ARPE-19 cells
Test: Effect of AZD103 on Aβ1-42-induced VEGF secretion in ARPE-19 cells (VEGF ELISA)
Assay type: cell-based, human
From the text: The potential of AZD-103 to neutralize the effects of Aβ on VEGF expression by RPE cells was investigated using the following materials and methods.
Materials: Human VEGF Duoset, 2nd Generation was obtained from R & D Systems [# DY293B]. 3,3′,5,5′-Tetramethylbenzidine Liquid Substrate (TMB) was obtained from Sigma [# S8865]. The stop solution for TMB was also obtained from Sigma [# S5814]. Tween-20 was obtained from Fisher [# BP 337-500]; Probumin was obtained from Millipore [#82-045-1]; and, 10× Phosphate Buffered Saline (PBS) was obtained from Roche [#11666789001]. […] The Media was then assessed for levels of VEGF by ELISA (R&D Systems, Minneapolis, Minn.) VEGF ELISA: Conditioned media collected from cell cultures grown in the presence or absence of Aβ1-42 and AZD103 were tested for vascular endothelial growth factor (VEGF) expression using a human VEGF duoset ELISA development kit as described by the manufacturer (R &D systems). […] The reaction was stopped and the colour development was read spectrophotometrically at a wavelength of 450 nm.

O[C@H]1[C@H](O)[C@@H](O)[C@H](O)[C@@H](O)[C@@H]1O [AZD103]
amount of secreted VEGF (ARPE-19 cells (1.5×10^4), Aβ1-42 oligomers pre-incubated 2 hours at 37° C. with AZD103 at weight ratios 1:0.5, 1:1, 1:2, 24 Hr treatment, serum-free medium, ELISA): effective towards reducing the amount of secreted VEGF
VEGF expression by RPE cells in presence of Aβ, compared to basal levels (absence of Aβ) (ARPE-19 cells, expressed as comparison to Normal ARPE-19 cells that received no treatment): returned to basal levels
